From publication PMC9697873, “Construction and Evaluation of a Novel Organic Anion Transporter 1/3 CRISPR/Cas9 Double-Knockout Rat Model” (Pharmaceutics, 2022)
Counter-ions that a name gives are not always drawn. Like-named read-outs stand apart in the source and are kept apart here.

Columns and labels:
[1] = UTs concentration and renal uptake ratio detection in WT and KO rats; assay type: in vivo, rat; conditions: for plasma concentration of endogenous UT, KO compared with WT rats / renal uptake ratio of endogenous UT, KO compared with WT rats: 4W and/or 7W rats, n = 7; for urine concentration of endogenous UT, KO compared with WT rats: 12-h urine, 4W and 7W rats
Method: We collected blood, 12-h urine and kidney tissue samples of 4W and 7W WT and KO rats. The concentrations of UTs were measured by the liquid chromatography-tandem mass spectrometry (LC-MS/MS), which consisted of an Agilent 1260 liquid chromatography and a 6460 triple-quadrupole mass spectrometer operated in the electrospray ionization mode (Agilent Technologies, Santa Clara, CA, USA). Chromatographic separations were performed on an Agilent ZORBAX RR StableBond C18 analytical guard column (4.6 mm × 100 mm, 3.5 µm, Agilent Technologies, Santa Clara, CA, USA) at 30 °C. The MS parameters are shown in Supporting Information Table S1. […] The internal standard used in the positive ion mode was d3-creatinine, and in the negative ion mode was d5-hippuric acid.

[2] = furosemide ref 19; PAH ref 17, 52; cited from earlier work
[3] = Urinary excretion after intravenous drug cocktail in WT and KO rats; assay type: in vivo, rat; conditions: KO vs WT rats, i.v. cocktail, urine to 12 h
Method: The blood samples were centrifuged at 8000× g for 10 min and the supernatant was stored at −80 °C for detection.

[4] = Slc22a6/Slc22a8-/- rats, i.v. cocktail, mean ± S.D., n = 5
[5] = WT rats, i.v. cocktail, mean ± S.D., n = 5

Row | Compound | plasma concentration of endogenous UT, KO compared with WT rats [1] | renal uptake ratio of endogenous UT, KO compared with WT rats [1] | also measured
1 | Cn1cnc2c(ncn2[C@@H]2O[C@H](CO)[C@@H](O)[C@H]2O)c1=O [1-methyl-inosine] | significantly increased | obviously decreased | urine concentration of endogenous UT, KO compared with WT rats [1]: clearly decreased
2 | OC[C@H]1O[C@@H](Oc2c[nH]c3ccccc23)[C@H](O)[C@@H](O)[C@@H]1O [3-indolyl-β-D-glucopyranoside] | significantly increased | obviously decreased | 
3 | O=S(=O)([O-])Oc1c[nH]c2ccccc12.[K+] [3-indoxyl sulfate potassium salt] | significantly increased | obviously decreased | 
4 | CCc1ccc(OS(=O)(=O)[O-])cc1.[K+] [4-ethylphenyl sulfate] | significantly increased | obviously decreased | urine concentration of endogenous UT, KO compared with WT rats [1]: increased
5 | Nc1ccccc1C(=O)C[C@@H](N)C(=O)O [D-kynurenine] | significantly increased | obviously decreased | 
6 | CN(C)c1nc2c(ncn2[C@@H]2O[C@H](CO)[C@@H](O)[C@H]2O)c(=O)[nH]1 [N2,N2-dimethylguanosine] |  |  | urine concentration of endogenous UT, KO compared with WT rats [1]: clearly decreased
7 | N[C@@H](CCCCNCC(=O)O)C(=O)O [N6-(carboxymethyl)-l-lysine] | significantly increased | obviously decreased | 
8 | O=C(O)CNC(=O)C=Cc1ccccc1 [N-(cinnamoyl)glycine] | significantly lower | much higher | 
9 | CC(=O)N[C@@H](CCCN=C(N)N)C(=O)O [N-acetyl-L-arginine] | significantly increased | obviously decreased | 
10 | CC(=O)Nc1ccn([C@@H]2O[C@H](CO)[C@@H](O)[C@H]2O)c(=O)n1 [N-acetylcytidine] | significantly increased | obviously decreased | 
11 | Nc1ccc(C(=O)NCC(=O)O)cc1 [PAH, p-aminohippuric acid] |  |  | plasma protein binding rate [2]: low
12 | CN1CC(=O)NC1=N [creatinine] | not significantly increased |  | 
13 | O=C(O)CNC(=O)c1ccccc1 [hippuric acid] | significantly increased | obviously decreased | 
14 | O=C(O)c1cc(=O)[nH]c(=O)[nH]1 [orotic acid] | significantly increased | obviously decreased | 
15 | Cc1ccc(O[C@@H]2O[C@H](C(=O)O)[C@@H](O)[C@H](O)[C@H]2O)cc1 [p-cresol glucuronide] | significantly lower | much higher | 
16 | Cc1ccc(OS(=O)(=O)O)cc1 [p-cresol sulfate] | significantly increased | obviously decreased | 
17 | O=C(O)[C@H]1O[C@@H](Oc2ccccc2)[C@H](O)[C@@H](O)[C@@H]1O [phenyl-β-D-glucuronide] | significantly lower | much higher | 
18 | O=c1[nH]c(=O)c2[nH]c(=O)[nH]c2[nH]1 [uric acid] | significantly increased | obviously decreased | 
19 | inulin |  |  | plasma concentration, KO compared with WT rats (KO vs WT rats, i.v. cocktail): much higher; AUC(0–12) (Slc22a6/Slc22a8-/- rats, i.v. cocktail (PAH 5 mg/kg, metformin 5 mg/kg, inulin 100 mg/kg), mean ± S.D., n = 5): 14,208.11 ± 1433.67 ng/mL·min; AUC(0–∞) [4]: 16,434.89 ± 1696.15 ng/mL·min; CL/F [4]: 6137.27 ± 639.31; Cmax [4]: 0.3764 ± 0.03613 µg/mL; MRT(0–12) [4]: 35.34 ± 4.08 min; MRT(0–∞) [4]: 37.99 ± 4.20 min; V1/F [4]: 185,957.58 ± 15,232.62 L/kg; t1/2α [4]: 5.23 ± 2.51 min; CL/F [5]: 7427.26 ± 724.03; Cmax [5]: 0.32447 ± 0.03341 µg/mL; MRT(0–12) [5]: 28.71 ± 5.54 min; MRT(0–∞) [5]: 34.03 ± 8.70 min; V1/F [5]: 241,341.96 ± 36672.44 L/kg; t1/2α [5]: 14.75 ± 4.72 min; urinary excretion / urine concentration, KO compared with WT rats [3]: significantly decreased
